Assays:
dopaminergic neurons = experiment: MPTP mouse model, dopaminergic neuronal damage (TH immunoblotting, TH immunohistochemistry); assay type: in vivo; settings: peptide 6 μmol/kg i.p. twice a day for 12 days
Procedure: C57BL/6 mice were i.p. injected with 30 mg/kg parkinsonian toxin MPTP (or saline as control), once per day for 5 consecutive days, to induce dopaminergic neuron damage. The effects of MPTP administration on mouse rotarod performance and damage to dopaminergic neurons were then analyzed 1 week after the last injection of MPTP. To determine the effect of α-synuclein knockdown in protecting dopaminergic neurons against MPTP, the Tat-βsyn-degron peptide or its control Tat-βsyn (6 μmol/kg; i.p.) was used in some animals twice a day for 12 days, beginning the first day of MPTP injection. […] The striatum is a region that receives dopaminergic neuronal projections from the substantia nigra and is also deeply affected in PD. Consistent with the specific neurotoxic effects of MPTP on dopaminergic neurons, in mice receiving MPTP injection alone there was a significant loss of protein TH in both dopaminergic neurons in the substantia nigra-containing ventral midbrain (FIGS. 6a and 6c) and dopaminergic neuronal terminals in the striatum (FIGS. 6d and 6f). […] As expected, the specific knockdown of α-synuclein by Tat-βsyn-degron protected against MPTP-induced dopaminergic neuronal injury (FIGS. 6c and 6f).
C57BL/6 mice (20-25 g) received intraperitoneal (i.p.) injection of 30 mg/kg parkinsonian toxin MPTP hydrochloride once a day for 5 days to induce dopaminergic neuron death in the substantia nigra, while the control mice received equal volumes of saline injection. 6 μmol/kg Tat-βsyn-degron peptide or control Tat-βsyn peptide was i.p. injected into the MPTP-treated mice every 12 hrs from the first day of MPTP injection until 7 days after the last injection of MPTP. All groups of mice then underwent a rotarod test before they were sacrificed.
Brain tissues or cultured cells were lysed on ice in the lysis buffer and then the solution was centrifuged at 14,000 rpm for 10 min at 4° C. Next, the supernatant was collected and protein concentrations were determined using a BCA protein assay kit (Thermo Scientific, 23227). Equal amount of protein samples was mixed with 4× sample buffer, boiled at 100° C. for 5 min, and separated on 10% sodium dodecyl sulphate-polyacrylamide gel electrophoresis (SDS-PAGE). Proteins were then transferred to Immobilon-PTM polyvinylidene fluoride (PVDF) membranes (Bio-Rad, 162-0177). The membranes were blocked with 5% non-fat milk in Tris-buffered saline containing 0.1% Tween-20 (TBST) for 1 hr at room temperature, and then incubated overnight at 4° C. with primary antibody. After washing 3×5 min in TBST, membranes were incubated with horseradish peroxidase-conjugated secondary antibody for 1 hr at room temperature. After another three washes with TBST, protein was visualized in the Bio-Rad Imager using ECL western blotting substrate (Pierce, 32016). The band density of each protein was quantified by the Bio-Rad Quantity One software and the relative optical density was analyzed relative to the loading control β-actin on the same membrane.
C57BL/6 mice were anesthetized with 1.5 g/kg urethane (Sigma, U2500) and then perfused with 0.9% saline and 4% paraformaldehyde. Brains were removed and fixed in 4% paraformaldehyde for 24 hrs before being transferred to 30% sucrose/PBS solution for cryoprotection. The brains were then sectioned into 30 μm slices using a Leica cryostat. After blocking and permeabilization using a PBS solution containing 1% BSA and 0.2% Triton X-100 for 30 min at room temperature, the brain slices were incubated with anti-TH antibody (1:800 dilution) for 3 days at 4° C. Finally, the TH-positive neurons in the substantia nigra and TH-positive neuronal terminals in the striatum were stained using the anti-mouse Ig HRP detection kit (BD Transduction Laboratories, 551011) according to manufacturer's instruction, and visualized under Zeiss Axio Observer D1 microscope. […]

[1] = system: β2/3 subunit of the GABAA receptor; experiment: GABAA receptor β2/3 subunit level in cortical cultures, immunoblot; assay type: cell-based, rat; settings: 50 μM, 24 hrs
Procedure: Primary rat neuron cultures were prepared from embryos of pregnant Sprague-Dawley rats (E18). The experimental protocol was approved by the University of British Columbia Animal Care Committee. Briefly, the cortical tissue or ventral midbrain tissue was isolated into ice cold HBSS (Invitrogen, 14170-112) and then digested with 0.25% trypsin-EDTA at 37° C. for 30 min. After washing with warm DMEM (supplemented with 10% FBS) three times, neurons were suspended in neuron culture media and dissociated by trituration using varying sizes of pipettes. Neurons were then centrifuged, and the pellet was re-suspended in culture media, washed twice with culture media, and plated on the poly-D-lysine-coated plates. Neuron culture was maintained in the 37° C. incubator with 95% O2 and 5% CO2. The morning after culturing, 2/3 of the neuron culture media was replaced with fresh neuron culture media. Media was then replaced every 3-4 days. […]
Brain tissues or cultured cells were lysed on ice in the lysis buffer and then the solution was centrifuged at 14,000 rpm for 10 min at 4° C. Next, the supernatant was collected and protein concentrations were determined using a BCA protein assay kit (Thermo Scientific, 23227). […] The band density of each protein was quantified by the Bio-Rad Quantity One software and the relative optical density was analyzed relative to the loading control β-actin on the same membrane.

[2] = MPTP 30 mg/kg x5 days, immunoblot

YGRKKRRQRRRRTKSGVYLVGRRRG (The sequence is synthesized (YGRKKRRQRRRRTKSGVYLVGRRRG)) [Tat-βsyn-degron]
TH protein level in striatum after MPTP (dopaminergic neurons; [2]): protected against the MPTP-induced decrease in the level of TH protein | TH protein level in ventral midbrain after MPTP (dopaminergic neurons; [2]): protected against the MPTP-induced decrease in the level of TH protein | MPTP-induced dopaminergic neuronal damage (overall, FIG. 6 and FIG. 7a-d) (dopaminergic neurons): largely protected | density of dopaminergic neuronal terminals in the striatum after MPTP (dopaminergic neurons; TH densitometry): protected against MPTP-induced decrease | number of dopaminergic neurons in the substantia nigra pars compacta after MPTP (dopaminergic neurons; blinded TH neuron counting): protected against MPTP-induced decrease in the number of dopaminergic neurons | expression level of β2/3 subunit of the GABAA receptor [1]: did not affect the expression levels
